Measurements published in ChEMBL document CHEMBL1201862, “PubChem BioAssay data set” (2004).
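Compound exposure: 48 hours, 5 concentrations, 96-well plates. Here, GI50 denotes the concentration required for 50% inhibition of growth.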 The source made the active and inactive calls. Rule as the data show it: active = GI50 up to about 1.1 µM and inactive = higher.

How the values were obtained:
Test in all cases: inhibition of tumour cell growth, NCI panel, 48 h
UO-31 = test system: UO-31
T47D = test system: T47D
NCI-H226 = test system: NCI-H226
SN12C = test system: SN12C
RXF 393 = test system: RXF 393
NCI-H460 = test system: NCI-H460
HCC 2998 = test system: HCC 2998
SNB-75 = test system: SNB-75
ACHN = test system: ACHN
CAKI-1 = test system: CAKI-1
SNB-19 = test system: SNB-19
OVCAR-8 = test system: OVCAR-8
MCF7 = test system: MCF7
BT-549 = test system: BT-549
SW-620 = test system: SW-620
OVCAR-4 = test system: OVCAR-4
NCI-H522 = test system: NCI-H522
CCRF-CEM = test system: CCRF-CEM
HCT-15 = test system: HCT-15

Measured: GI50

COc1cc2c(c(OC)c1OC)C(=O)[C@H](Br)[C@H]2NC(=O)NCCCl
62.5 µM: HCT-15
inactive: UO-31 > 100 µM | T47D > 100 µM | NCI-H226 88.5 µM | SN12C > 100 µM | RXF 393 97.1 µM | NCI-H460 80.4 µM | HCC 2998 > 100 µM | SNB-75 > 100 µM | ACHN > 100 µM | CAKI-1 > 100 µM | SNB-19 > 100 µM | OVCAR-8 > 100 µM | MCF7 > 100 µM | BT-549 38.6 µM | SW-620 > 100 µM | OVCAR-4 71 µM | NCI-H522 > 100 µM | CCRF-CEM 23.6 µM

CC(C)(C)OC(=O)N1C[C@H](CC(=O)OCc2ccccc2)C[C@H]1C(=O)OCC(Cl)(Cl)Cl
3.27 µM: HCT-15
inactive: UO-31 3.94 µM | T47D 1.64 µM | NCI-H226 3.55 µM | SN12C 6.62 µM | RXF 393 6.15 µM | NCI-H460 11.2 µM | HCC 2998 10.7 µM | SNB-75 10.5 µM | ACHN 5.01 µM | CAKI-1 3.7 µM | SNB-19 7.74 µM | OVCAR-8 6.07 µM | MCF7 3.11 µM | BT-549 8.15 µM | SW-620 11.4 µM | OVCAR-4 3.95 µM | NCI-H522 1.62 µM | CCRF-CEM 1.35 µM

O=C1O[C@H]2[C@H](OC(=O)c3cc(O)c(O)c(O)c3)[C@@H](OC(=O)c3cc(O)c(O)c4c3[C@@H]3C1=CC(=O)C(O)(O)C3(O)O4)[C@H](OC(=O)c1cc(O)c(O)c(O)c1)O[C@@H]2COC(=O)c1cc(O)c(O)c(O)c1 (stereo partly specified) [TERCHEBIN]
inactive: UO-31 18.5 µM | T47D 54.7 µM | NCI-H226 35.7 µM | SN12C > 100 µM | RXF 393 > 100 µM | NCI-H460 30.1 µM | HCC 2998 68.2 µM | SNB-75 49.9 µM | ACHN 27.9 µM | CAKI-1 36.2 µM | SNB-19 > 100 µM | OVCAR-8 39.3 µM | MCF7 74.5 µM | BT-549 > 100 µM | SW-620 63.5 µM | OVCAR-4 32.9 µM | NCI-H522 32.1 µM | CCRF-CEM 23 µM
36.6 µM: HCT-15

O=C(O)Cc1ccc(Oc2nc3ccccc3nc2-c2ccccc2)cc1
inactive: UO-31 36.6 µM | T47D > 100 µM | NCI-H226 30.5 µM | SN12C 70 µM | RXF 393 29.2 µM | NCI-H460 57.8 µM | HCC 2998 49.5 µM | SNB-75 > 100 µM | ACHN 51.4 µM | CAKI-1 63.5 µM | SNB-19 > 100 µM | OVCAR-8 > 100 µM | MCF7 56.5 µM | BT-549 37 µM | SW-620 63.1 µM | OVCAR-4 > 100 µM | NCI-H522 42.1 µM | CCRF-CEM 61.4 µM
65.3 µM: HCT-15

CCCC(=O)NC(Nc1ccc(S(=O)(=O)Nc2cc(C)on2)cc1)(C(=O)OCC)C(F)(F)F (stereo unspecified)
inactive: UO-31 > 100 µM | T47D > 100 µM | NCI-H226 > 100 µM | SN12C > 100 µM | RXF 393 > 100 µM | HCC 2998 > 100 µM | SNB-75 > 100 µM | ACHN > 100 µM | CAKI-1 > 100 µM | SNB-19 > 100 µM | OVCAR-8 > 100 µM | MCF7 > 100 µM | BT-549 > 100 µM | SW-620 > 100 µM | OVCAR-4 > 100 µM | NCI-H522 > 100 µM | CCRF-CEM > 100 µM
> 100 µM: HCT-15

O=C1OC(=O)c2cc(S(=O)(=O)c3ccc4c(c3)C(=O)OC4=O)ccc21
inactive: UO-31 > 100 µM | T47D > 100 µM | NCI-H226 > 100 µM | SN12C > 100 µM | RXF 393 > 100 µM | NCI-H460 > 100 µM | HCC 2998 > 100 µM | SNB-75 26.1 µM | ACHN > 100 µM | CAKI-1 > 100 µM | SNB-19 > 100 µM | OVCAR-8 > 100 µM | MCF7 > 100 µM | BT-549 > 100 µM | SW-620 > 100 µM | OVCAR-4 > 100 µM | NCI-H522 > 100 µM | CCRF-CEM > 100 µM
> 100 µM: HCT-15

NC(Cc1ccc(S(=O)(=O)O)cc1)C(=O)NC(Cc1ccc(S(=O)(=O)O)cc1)C(=O)NC(Cc1ccc(S(=O)(=O)O)cc1)C(=O)NC(Cc1ccc(S(=O)(=O)O)cc1)C(=O)O (stereo unspecified)
inactive: UO-31 > 100 µM | T47D > 100 µM | NCI-H226 > 100 µM | SN12C > 100 µM | RXF 393 > 100 µM | NCI-H460 > 100 µM | HCC 2998 > 100 µM | SNB-75 > 100 µM | ACHN > 100 µM | CAKI-1 > 100 µM | OVCAR-8 > 100 µM | MCF7 46.1 µM | BT-549 > 100 µM | SW-620 > 100 µM | OVCAR-4 > 100 µM | NCI-H522 > 100 µM | CCRF-CEM > 100 µM
> 100 µM: HCT-15
